The pEC50 is −log10 of the EC50, conventionally taken in molar units. High values mean a small EC50, low ones a large EC50. Broadly, the pIC50 is the IC50 on a negative log10 scale, so that one unit is a factor of ten. In general, CC50 refers to the concentration giving 50% cytotoxicity. Low readings indicate harm at low concentration, high ones better tolerance by the cells.

One series deals with HCT-116. The experiment in a line: Anticancer activity against human HCT116 cells incubated for 5 days by MTT assay. Format: functional, cell-based. To be noted: HCT-116, 120 h. In general terms: Tetrazolium dyes change colour on reduction, which living cells bring about.
The subject of the next series is DU-145. Put plainly: Growth inhibition of human DU145 cells incubated for 72 hrs by MTT assay. The note with it: DU-145, 72 h. Format: functional, cell-based.
Another series relates to Zika virus. The experiment in a line: Antiviral activity against ZIKV infected in human neural progenitor cells incubated with cells for 24 hrs prior to viral infection followed by replacement of fresh medium containing compound and measured at 48 hrs post infection by RT-PCR method. To be noted: Neural Progenitor Cell.
In another series the test system is LNCaP. The experiment in a line: Growth inhibition of human LNCaP cells incubated for 72 hrs by MTT assay. It is filed as functional, cell-based.
The nature of series [1]: Cytotoxicity against human neural progenitor cell by CellTiter-Glo Luminescent Cell Viability Assay. The note with it: neural progenitor cells. Format: tissue-based. For orientation: Cellular ATP, detected with luciferase, serves as a proxy for viable cell number.

pEC50, pIC50: −log10 of the molar value.

As for `CCn1cc(C(=O)O)c(=O)c2cc(F)c(N3CCNCC3)nc21` [ENOXACIN], the figures for the negative-log EC50 (pEC50) in the series with HCT-116, with DU-145 and with LNCaP were 3.91, 3.85 and 3.98, respectively. In the series with Zika virus, this compound had a negative-log IC50 (pIC50) of 4.28. Moreover, the CC50 in series [1] is 176 µM.
